How the values were obtained:
[1] = tested on: Enterovirus D68/US/KY/14-18953; assay: Antiviral assay, Enterovirus D68 strain US/KY/14-18953 in RD cells; assay type: cell-based
[2] = tested on: Enterovirus D68/US/Mo/14-18949; assay: Antiviral assay, Enterovirus D68 strain US/Mo/14-18949 in RD cells; assay type: cell-based
Enterovirus D68/Fermon = assay: Antiviral assay, Enterovirus D68 strain Fermon in RD cells; assay type: cell-based
Coxsackievirus B5 = assay: microbe, parasite or virus in culture; assay type: cell-based; details: read-out: EC50 CVB5
Coxsackievirus B3-H3 = assay: microbe, parasite or virus in culture; assay type: cell-based; details: read-out: EC50 CVB3-H3
Coxsackievirus B1 = assay: microbe, parasite or virus in culture; assay type: cell-based; details: read-out: EC50 CVB1
Echovirus 6 = assay: microbe, parasite or virus in culture; assay type: cell-based; details: read-out: EC50 ECHO06
Echovirus 9 = assay: microbe, parasite or virus in culture; assay type: cell-based; details: read-out: EC50 ECHO09
Coxsackievirus A9 = assay: microbe, parasite or virus in culture; assay type: cell-based; details: read-out: EC50 COX A9
Poliovirus 3 = assay: microbe, parasite or virus in culture; assay type: cell-based; details: read-out: EC50 PV3
Poliovirus 1 = assay: microbe, parasite or virus in culture; assay type: cell-based; details: read-out: EC50 PV1
Coxsackievirus B4 = assay: microbe, parasite or virus in culture; assay type: cell-based; details: read-out: EC50 CVB4
Coxsackievirus B2 = assay: microbe, parasite or virus in culture; assay type: cell-based; details: read-out: EC50 CVB2
Enterovirus 71 = assay: microbe, parasite or virus in culture; assay type: cell-based; details: read-out: EC50 EV71
Echovirus 7 = assay: microbe, parasite or virus in culture; assay type: cell-based; details: read-out: EC50 ECHO07

SMILES	EC50 [1]	EC50 [2]	EC50 (Enterovirus D68/Fermon)	CC50 (RD cells)	EC50 (Coxsackievirus B5)	EC50 (Coxsackievirus B3-H3)	CC50 (HeLa-RW cells)	EC50 (Coxsackievirus B1)	EC50 (Echovirus 6)	EC50 (Echovirus 9)	EC50 (Coxsackievirus A9)	CC50 (LLC cells)	EC50 (Poliovirus 3)	EC50 (Poliovirus 1)	EC50 (Coxsackievirus B4)	EC50 (Coxsackievirus B2)	EC50 (Enterovirus 71)	EC50 (Echovirus 7)
CC(C)n1ncc2c(C(=O)Nc3ccccc3F)cc(-c3nccs3)nc21 [JX-007]	1.2 µM	0.66 ± 0.1 µM	0.8 ± 0.28 µM	> 200 µM														
CC(C)(C)n1ncc2c(C(=O)Nc3ccccc3F)cc(-c3cccs3)nc21 [JX-013]	1.8 ± 0.44 µM	1.07 ± 0.23 µM	1.33 ± 0.23 µM	> 200 µM														
CC(C)n1ncc2c(C(=O)Nc3ccc(F)c(F)c3)cc(-c3cccs3)nc21 [JX-015]					2.3 µM	1.3 ± 0.1 µM	> 200 µM	2.3 µM	1.3 ± 0.1 µM	0.6 µM	1.2 µM	> 200 µM	> 25 µM	> 25 µM	3.1 µM			
CC(C)n1ncc2c(C(=O)Nc3cc(F)cc(F)c3)cc(-c3cccs3)nc21 [JX-016]					> 10 µM	> 10 µM		> 10 µM					> 10 µM	> 10 µM	> 10 µM	> 10 µM		
CC(C)n1ncc2c(C(=O)Nc3cc(F)ccc3F)cc(-c3cccs3)nc21 [JX-018]						2.7 ± 0.4 µM	> 200 µM		2.6 ± 0.3 µM		2.4 µM	100 µM	> 25 µM	> 25 µM			3.5 µM	
CC(C)n1ncc2c(C(=O)Nc3cccc(F)c3F)cc(-c3cccs3)nc21 [JX-019]						2.7 ± 0.4 µM	> 200 µM		2 ± 0.6 µM			75 µM	> 25 µM	> 25 µM			3 µM	
CC(C)n1ncc2c(C(=O)Nc3c(F)cc(F)cc3F)cc(-c3cccs3)nc21 [JX-020]					2.3 µM	1.8 ± 0.7 µM	> 200 µM	6 µM	2.4 µM		2.4 µM	> 200 µM	> 25 µM	> 25 µM	3.1 µM		3 µM	
CC(C)n1ncc2c(C(=O)Nc3ccc(F)cc3)cc(-c3ccco3)nc21 [JX-026]	1.3 ± 0.2 µM	1 ± 0.02 µM	1.2 µM	> 200 µM	3.3 µM	2.4 µM	> 200 µM	3.3 µM	2.4 µM			> 200 µM	> 25 µM	> 25 µM	3.3 µM	3.3 µM	2.6 ± 0.3 µM	
CC(C)n1ncc2c(C(=O)Nc3ccccc3S(N)(=O)=O)cc(-c3cccs3)nc21 [JX-033]					2.7 ± 0.6 µM	2.6 ± 0.4 µM	10 µM	3.9 ± 1.1 µM	2.4 µM		2.4 µM	25 µM	> 25 µM	> 25 µM	3.1 ± 0.1 µM	3.9 ± 1.1 µM	2.5 ± 0.7 µM	
CC(C)n1ncc2c(C(=O)Nc3ccc(F)cc3)cc(C3CC3)nc21 [JX-038]						4.7 µM	10 µM	4.7 µM	3.9 µM		3 µM	12.5 µM	> 10 µM	> 10 µM		4.7 µM	3.2 ± 0.1 µM	
CC(C)n1ncc2c(C(=O)Nc3ccncc3)cc(-c3cccs3)nc21 [JX-042]					0.6 µM	0.6 µM	6 µM	0.6 µM	0.2 µM		0.5 µM	6.25 µM	> 10 µM	> 10 µM	0.6 µM	0.6 µM	0.4 µM	
CC(C)n1ncc2c(C(=O)Nc3ccncn3)cc(-c3cccs3)nc21 [JX-043]					0.6 µM	0.6 µM	20 µM	0.6 µM	0.2 µM		0.5 µM	50 µM	> 10 µM	> 10 µM	0.5 µM	0.6 µM	0.5 ± 0.1 µM	0.7 µM
CC(C)n1ncc2c(C(=O)Nc3ccc(S(C)(=O)=O)cc3)cc(-c3cccs3)nc21 [JX-047]	0.3 µM	0.16 ± 0.04 µM	0.3 µM	75 µM	0.6 µM	0.6 µM	200 µM	0.6 µM	0.3 µM		0.5 µM	50 µM	> 10 µM	> 10 µM	0.6 µM	0.6 µM	0.5 ± 0.1 µM	0.8 µM

Reference: patent US11787799B2 (priority 2015, dated 2023)
